The subject of the first series is Pseudomonas aeruginosa PAO1 MB9798 (efflux+, IMP-1). The following applies: ratio MITC95 PA 9798/MITC95 PA 9799; imipenem at 2 μg/mL. In a few lines: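 Isogenic PAO1 pair (efflux+ MB9798, efflux− MB9799, both IMP-1) tested by microbroth MIC with fixed imipenem and/or ceftazidime, usually at CLSI breakpoint, plus fixed class A/C inhibitor against AmpC. MBL inhibitor titrated; concentration restoring susceptibility recorded and fold difference between strains taken as efflux extent.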
Take `CN(C)CCCN(C)S(=O)(=O)c1ccc(-c2cccc3sc(N)nc23)c(-c2nnn[nH]2)c1S(N)(=O)=O` [Example 52, 4-(2-amino-1,3-benzothiazol-4-yl)-N1-[3-(dimethylamino)propyl]-N~1~-methyl-3-(1H-tetrazol-5-yl)benzene-1,2-disulfonamide]: the Efflux ratio was found to be 2.00.

In the case of `Nc1nc2c(-c3ccc(S(=O)(=O)N4CC[C@@H](F)[C@H](N)C4)c(S(N)(=O)=O)c3-c3nn[nH]n3)cccc2[nH]1` [Example 205, 3-(2-amino-1H-benzo[d]imidazol-4-yl)-6-(((3R,4R)-3-amino-4-fluoropiperidin-1-yl)sulfonyl)-2-(2H-tetrazol-5-yl)benzenesulfonamide], the Efflux ratio turned out to be 8.00.

With `CN1CCC(N(C)S(=O)(=O)c2ccc(-c3cccc4sc(N)nc34)c(-c3nnn[nH]3)c2S(N)(=O)=O)C1` (stereo not shown) [Example 54, 4-(2-amino-1,3-benzothiazol-4-yl)-N1-methyl-N^1-(1-methylpyrrolidin-3-yl)-3-(1H-tetrazol-5-yl)benzene-1,2-disulfonamide], the Efflux ratio amounted to 2.00.

Consider `Cn1c(N)nc2c(-c3ccc(S(=O)(=O)NCCCN)c(S(N)(=O)=O)c3-c3nn[nH]n3)cccc21` [Example 183, 4-(2-amino-1-methyl-1H-benzo[d]imidazol-4-yl)-N^1-(3-aminopropyl)-3-(2H-tetrazol-5-yl)benzene-1,2-disulfonamide], for which the Efflux ratio is 1.00.

For the compound `NCCNS(=O)(=O)c1ccc(-c2cccc3nonc23)c(-c2nn[nH]n2)c1S(N)(=O)=O` [Example 239, N^1-(2-aminoethyl)-4-(benzo[c][1,2,5]oxadiazol-4-yl)-3-(2H-tetrazol-5-yl)benzene-1,2-disulfonamide], the Efflux ratio is on record as 8.00.

Consider `Nc1ccc(-c2ccc(S(=O)(=O)NC[C@]3(N)CCNC3)c(S(N)(=O)=O)c2-c2nn[nH]n2)cn1` [Example 368, (S)-4-(6-aminopyridin-3-yl)-N1-((3-aminopyrrolidin-3-yl)methyl)-3-(2H-tetrazol-5-yl)benzene-1,2-disulfonamide], for which the Efflux ratio came out at 1.00.

Take `Nc1nc2c(-c3ccc(S(=O)(=O)N[C@@]4(CO)CCNC4)c(S(N)(=O)=O)c3-c3nnn[nH]3)cccc2[nH]1` [Example 176, (S)-4-(2-amino-1H-benzo[d]imidazol-4-yl)-N1-(3-(hydroxymethyl)pyrrolidin-3-yl)-3-(1H-tetrazol-5-yl)benzene-1,2-disulfonamide]: the Efflux ratio is listed as 1.00.

Turning to `Nc1nc2c(-c3ccc(S(=O)(=O)N[C@@H]4CCNC4)c(S(N)(=O)=O)c3-c3nnn[nH]3)cccc2s1` [Example 63, 4-(2-amino-1,3-benzothiazol-4-yl)-N1-[(3R)-pyrrolidin-3-yl]-3-(1H-tetrazol-5-yl)benzene-1,2-disulfonamide], the Efflux ratio was 0.50.

Take `CN1CCCC(NS(=O)(=O)c2ccc(-c3cccc4sc(N)nc34)c(-c3nnn[nH]3)c2S(N)(=O)=O)C1` (stereo not shown) [Example 18, 4-(2-amino-1,3-benzothiazol-4-yl)-N1-(1-methylpiperidin-3-yl)-3-(1H-tetrazol-5-yl)benzene-1,2-disulfonamide]: the Efflux ratio worked out at 1.00.

For the compound `Nc1cncc(-c2ccc(S(=O)(=O)N[C@@H]3CCNC3)c(S(N)(=O)=O)c2-c2nn[nH]n2)c1` [Example 219, (R)-4-(5-aminopyridin-3-yl)-N1-(pyrrolidin-3-yl)-3-(2H-tetrazol-5-yl)benzene-1,2-disulfonamide], the Efflux ratio was 1.00.

In the case of `NCCCNS(=O)(=O)c1ccc(-c2cccc3[nH]c(N)nc23)c(-c2nn[nH]n2)c1S(N)(=O)=O` [Example 182, 4-(2-amino-1H-benzo[d]imidazol-4-yl)-N1-(3-aminopropyl)-3-(2H-tetrazol-5-yl)benzene-1,2-disulfonamide], the Efflux ratio is given as 0.80.

As for `Nc1nc2c(-c3ccc(S(=O)(=O)NC4(CO)CCNC4)c(S(N)(=O)=O)c3-c3nnn[nH]3)cccc2s1` (stereo not shown) [Example 83, 4-(2-amino-1,3-benzothiazol-4-yl)-N1-[3-(hydroxymethyl)pyrrolidin-3-yl]-3-(1H-tetrazol-5-yl)benzene-1,2-disulfonamide], the Efflux ratio was found to be 0.50.

On to `CN(C1CCCNC1)S(=O)(=O)c1ccc(-c2cccc3sc(N)nc23)c(-c2nnn[nH]2)c1S(N)(=O)=O` (stereo not shown) [Example 64, 4-(2-amino-1,3-benzothiazol-4-yl)-N1-methyl-N1-piperidin-3-yl-3-(1H-tetrazol-5-yl)benzene-1,2-disulfonamide], for which the Efflux ratio is 2.00.

In the case of `CNCCNS(=O)(=O)c1ccc(-c2cccc3sc(N)nc23)c(-c2nnn[nH]2)c1S(N)(=O)=O` [Example 31, 4-(2-amino-1,3-benzothiazol-4-yl)-N^1-[2-(methylamino)ethyl]-3-(1H-tetrazol-5-yl)benzene-1,2-disulfonamide], the Efflux ratio is reported as 1.50.

Another series has as its system Serratia marcescens expressing IMP-1 (CL5741). Type of series: cell-based. Conditions: with imipenem 1 μg/ml; 95% inhibition of bacterial growth. As for the experimental part:
Antibiotic Potentiation Activity: Determination of Synergistic Concentration
The bacterial strains tested included the clinical strains Escherichia coli expressing NDM-1 (CLB30005, CLB30016), Serratia marcescens expressing IMP-1 (CL5741), and Klebsiella pneumoniae expressing VIM-1 (IHMA599644). Inhibitor activity was measured in the presence and absence of imipenem in a 384-well microplate.
The clinical strains CLB30016, CL5741 and IHMA599644 were grown on trypticase soy agar containing 5% sheep's blood. The bacteria on agar plates were incubated at 35° C. with humidity overnight. The following day, individual colonies from each clinical strain were picked and resuspended in 5 ml saline to attain an OD600 of 0.14, 0.11, 0.15 and 0.13, for CLB30016, CL5741 and IHMA599644, respectively. These were further diluted 1:100 into 1.1× CAMHB and used to inoculate the test wells as described below.
Imipenem in 10 mM 3-(N-morpholino)propanesulfonic acid (MOPS, pH 7) was stored in single use aliquots at −80° C. […] On the day of the assay, 4 μl of antibiotic was added to 45 ul of bacteria followed by 1 μl of test compound and mixed by pipetting and with an orbital shaker. The concentration of antibiotic used in the assay was 1 μg/ml. Microplates were covered and incubated at 35° C. for 22 hours to 24 hours. At the end of the incubation, absorbance was determined using a spectrophotometer.
Consider `Nc1ccc(-c2ccc(S(=O)(=O)NC[C@@H]3CCNC3)c(S(N)(=O)=O)c2-c2nn[nH]n2)cn1` [Example 491, (R)-4-(6-aminopyridin-3-yl)-N1-(pyrrolidin-3-ylmethyl)-3-(2H-tetrazol-5-yl)benzene-1,2-disulfonamide], for which the “Serratia marcescens (IMP-1) MITC95” value stood at 0.7813 µM.

Take `NC[C@H](CO)NS(=O)(=O)c1ccc(-c2cccc3nc(N)[nH]c23)c(-c2nn[nH]n2)c1S(N)(=O)=O` [Example 427, (R)-4-(2-amino-1H-benzo[d]imidazol-4-yl)-N^1-(1-amino-3-hydroxypropan-2-yl)-3-(1H-tetrazol-5-yl)benzene-1,2-disulfonamide]: the “Serratia marcescens (IMP-1) MITC95” value was found to be 0.7813 µM.

As to `Nc1ccc(-c2ccc(S(=O)(=O)NC3CC(N)C3)c(S(N)(=O)=O)c2-c2nn[nH]n2)cn1` [Example 483, N1-((1R,3R)-3-aminocyclobutyl)-4-(6-aminopyridin-3-yl)-3-(2H-tetrazol-5-yl)benzene-1,2-disulfonamide], the “Serratia marcescens (IMP-1) MITC95” value is 0.7813 µM.

In the case of `Nc1ccc(-c2ccc(S(=O)(=O)N[C@H]3CN[C@H](CO)C3)c(S(N)(=O)=O)c2-c2nn[nH]n2)cn1` [Example 411, 4-(6-aminopyridin-3-yl)-N^1-((3R,5S)-5-(hydroxymethyl)pyrrolidin-3-yl)-3-(2H-tetrazol-5-yl)benzene-1,2-disulfonamide], the “Serratia marcescens (IMP-1) MITC95” value turned out to be 1.563 µM.

Take `Nc1ccc(-c2ccc(S(=O)(=O)N3CCNCC3)c(S(N)(=O)=O)c2-c2nn[nH]n2)cn1` [Example 485, 3-(6-aminopyridin-3-yl)-6-(piperazin-1-ylsulfonyl)-2-(2H-tetrazol-5-yl)benzenesulfonamide]: the “Serratia marcescens (IMP-1) MITC95” value was 0.7813 µM.

For the compound `Nc1ccc(-c2ccc(S(=O)(=O)NCC3(O)CCNCC3)c(S(N)(=O)=O)c2-c2nn[nH]n2)cn1` [Example 492, 4-(6-aminopyridin-3-yl)-N1-((4-hydroxypiperidin-4-yl)methyl)-3-(2H-tetrazol-5-yl)benzene-1,2-disulfonamide], the “Serratia marcescens (IMP-1) MITC95” value came out at 1.563 µM.

As for `Nc1nc(-c2cccc(-c3ccc(S(=O)(=O)N[C@@H]4CCNC4)c(S(N)(=O)=O)c3-c3nn[nH]n3)c2)c[nH]1` [Example 428, (R)-3′-(2-amino-1H-imidazol-4-yl)-N^4-(pyrrolidin-3-yl)-2-(2H-tetrazol-5-yl)-[1,1′-biphenyl]-3,4-disulfonamide], the “Serratia marcescens (IMP-1) MITC95” value was 0.7813 µM.

Turning to `Nc1ccc2cccc(-c3ccc(S(=O)(=O)N[C@@H]4CCNC4)c(S(N)(=O)=O)c3-c3nn[nH]n3)c2n1` [Example 286, (R)-4-(2-aminoquinolin-8-yl)-N1-(pyrrolidin-3-yl)-3-(2H-tetrazol-5-yl)benzene-1,2-disulfonamide], the “Serratia marcescens (IMP-1) MITC95” value turned out to be 0.7813 µM.

For `Nc1ncc(-c2ccc(S(=O)(=O)N[C@@H]3CCNC3)c(S(N)(=O)=O)c2-c2nn[nH]n2)s1` [Example 284, (R)-4-(2-aminothiazol-5-yl)-N1-(pyrrolidin-3-yl)-3-(2H-tetrazol-5-yl)benzene-1,2-disulfonamide], the “Serratia marcescens (IMP-1) MITC95” value was determined as 0.7813 µM.

As for `NC[C@@H](O)CNS(=O)(=O)c1ccc(-c2ccc3nccn3c2)c(-c2nn[nH]n2)c1S(N)(=O)=O` [Example 420, (R)-N^1-(3-amino-2-hydroxypropyl)-4-(imidazo[1,2-a]pyridin-6-yl)-3-(2H-tetrazol-5-yl)benzene-1,2-disulfonamide], the “Serratia marcescens (IMP-1) MITC95” value turned out to be 1.563 µM.

The same series, now with this note: with imipenem 1 μg/ml; 95% inhibition of bacterial growth; CL5741.
As for `CC1(NS(=O)(=O)c2ccc(-c3ccc(N)nc3)c(-c3nn[nH]n3)c2S(N)(=O)=O)CNC1.Cl.Cl` [Example 497, 4-(6-aminopyridin-3-yl)-1-N-(3-methylazetidin-3-yl)-3-(2H-1,2,3,4-tetrazol-5-yl)benzene-1,2-disulfonamide hydrogen chloride], the “Serratia marcescens (IMP-1) MITC95” value amounted to 0.7813 µM.

Values taken from patent US10544130B2, “Metallo-beta-lactamase inhibitors” (priority 2015, dated 2020).
